According to article PMC5501782 (Scientific Reports, 2017):
Non-standard residues stand in square brackets, D forms with d. Residues, ends and D or L forms follow the SMILES beside them.

System: influenza virus (A/Puerto Rico/8/34, PR8) expressing green fluorescent protein (PR8-GFP)
Type: cell-based

CC(C)C[C@@H](NC(=O)[C@@H](CC(C)C)NC(=O)[C@@H](CC(N)=O)NC(=O)[C@H](NC(=O)[C@@H](Cc1ccccc1)NC(=O)CNC(=O)[C@@H](Cc1ccc(O)cc1)NC(=O)CNC(=O)[C@@H](CCCNC(=N)N)NC(=O)[C@@H](CCCCN)NC(=O)[C@@H](CCCCN)NC(=O)[C@@H](CCCNC(=N)N)NC(=O)[C@@H](CCCNC(=N)N)NC(=O)[C@@H](CCC(N)=O)NC(=O)[C@@H](CCCNC(=N)N)NC(=O)[C@@H](CCCNC(=N)N)NC(=O)[C@H](N)CCCNC(=N)N)C(C)C)C(=O)N[C@H](Cc1ccccc1)C(=O)N[C@H](CC(C)C)C(=O)N[C@@H](C(=O)N[C@@H](C(=O)N[C@H](CCC(=O)O)C(=O)O)C(C)C)C(C)C [TAT-Kα2] (H-[dR][dR][dR][dQ][dR][dR][dK][dK][dR]G[dY]G[dF][dV][dN][dL][dL][dF][dL][dV][dV][dE]-OH)
inhibition of PR8-GFP virus infection: significantly inhibited
